Measured values: US7015329B2 (Janssen Pharmaceutica N. V., priority 2003, dated 2006)

Columns and labels:
Assay type in all cases: cell-based
Details in all cases: 18–24 hrs
PPAR delta = molecular target: T1, PPAR delta (Homo sapiens, UniProt Q03181); assay: Transfection assay for PPAR receptors (GAL4-LBD luciferase reporter), PPAR delta
T1 construct: expressed in transfected cells; host or cells: HEK293
T1 sequence (Q03181 211-439 limits assumed): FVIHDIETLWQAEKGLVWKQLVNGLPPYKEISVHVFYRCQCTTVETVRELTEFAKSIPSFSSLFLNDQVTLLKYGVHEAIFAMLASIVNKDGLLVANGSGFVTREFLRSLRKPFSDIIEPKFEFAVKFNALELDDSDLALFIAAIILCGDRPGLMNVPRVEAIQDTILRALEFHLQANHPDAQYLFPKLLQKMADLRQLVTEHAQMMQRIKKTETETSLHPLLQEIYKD
Experimental: (§1) Transfection Assay Method for PPAR Receptors
(§2) HEK293 cells were grown in DMEM/F12 medium supplemented with 10% FBS and glutamine (Invitrogen) and incubated in a 5% CO2 incubator at 37° C. The cells were co-transfected using DMRIE-C reagent (Invitrogen) in serum free medium (Opti-MEM, Invitrogen) with two mammalian expression plasmids, one containing the DNA sequence coding for the ligand binding domains of either PPARαg or d fused to the yeast GAL4 DNA binding domain and the other containing the promoter sequence of the yeast GAL4 (UAS) fused to the firefly luciferase cDNA reporter. The next day, the medium was changed to DMEM/F12 medium supplemented with 5% charcoal treated serum (Hyclone) and glutamine. After 6 hrs the cells were trypsinized and seeded at a density of 50,000 cells/well into 96 well plates and incubated overnight as above. The cells were then treated with -test compounds or vehicle and incubated for 18–24 hrs as above. Luciferase reporter activity was measured using the Steady-Glo Luciferase Assay Kit from Promega. DMRIE-C Reagent was purchased from GIBCO Cat. No.10459-014. […] Steady-Glo Luciferase Assay Kit was purchased from Promega (Part#E254B).

PPAR alpha = molecular target: T2, PPAR alpha (Homo sapiens, UniProt Q07869); assay: Transfection assay for PPAR receptors (GAL4-LBD luciferase reporter), PPAR alpha
T2 construct: expressed in transfected cells; host or cells: HEK293
T2 sequence (Q07869 239-466 limits assumed): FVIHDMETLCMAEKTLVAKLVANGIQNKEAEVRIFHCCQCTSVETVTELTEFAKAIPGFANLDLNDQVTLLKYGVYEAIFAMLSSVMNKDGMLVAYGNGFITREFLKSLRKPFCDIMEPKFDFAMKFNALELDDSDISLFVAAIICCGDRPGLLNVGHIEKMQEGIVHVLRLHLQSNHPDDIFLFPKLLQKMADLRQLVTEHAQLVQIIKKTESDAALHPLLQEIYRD
Experimental: as §1
HEK293 cells were grown in DMEM/F12 medium supplemented with 10% FBS and glutamine (Invitrogen) and incubated in a 5% CO2 incubator at 37° C. The cells were co-transfected using DMRIE-C reagent (Invitrogen) in serum free medium (Opti-MEM, Invitrogen) with two mammalian expression plasmids, one containing the DNA sequence coding for the ligand binding domains of either PPARαg or d fused to the yeast GAL4 DNA binding domain and the other containing the promoter sequence of the yeast GAL4 (UAS) fused to the firefly luciferase cDNA reporter. The next day, the medium was changed to DMEM/F12 medium supplemented with 5% charcoal treated serum (Hyclone) and glutamine. After 6 hrs the cells were trypsinized and seeded at a density of 50,000 cells/well into 96 well plates and incubated overnight as above. The cells were then treated with -test compounds or vehicle and incubated for 18–24 hrs as above. Luciferase reporter activity was measured using the Steady-Glo Luciferase Assay Kit from Promega. DMRIE-C Reagent was purchased from GIBCO Cat. No.10459-014. OPTI-MEM I Reduced Serum Medium was purchased from GIBCO (Cat. No. 31985). Steady-Glo Luciferase Assay Kit was purchased from Promega (Part#E254B).
A variety of example compounds have been made and tested, with a range of in vitro results. Below are representative compounds and data; in some cases, where multiple EC50's are shown, multiple measurements were taken. Naturally, different compounds in Formula (I) may have not have activities identical to any one compound below.

PPAR gamma = molecular target: T3, PPAR gamma (Homo sapiens, UniProt P37231); assay: Transfection assay for PPAR receptors (GAL4-LBD luciferase reporter), PPAR gamma
T3 construct: expressed in transfected cells; host or cells: HEK293
T3 sequence (P37231 238-503 limits assumed): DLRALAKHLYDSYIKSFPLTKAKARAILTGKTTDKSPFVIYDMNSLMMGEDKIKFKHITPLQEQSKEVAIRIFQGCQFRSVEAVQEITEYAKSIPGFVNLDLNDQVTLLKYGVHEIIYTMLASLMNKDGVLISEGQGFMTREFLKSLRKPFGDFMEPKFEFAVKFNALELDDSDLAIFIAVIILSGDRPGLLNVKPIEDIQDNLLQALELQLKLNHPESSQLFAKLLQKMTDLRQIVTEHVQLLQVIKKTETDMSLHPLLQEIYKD
Experimental: as §1, §2

[1] = Table 1, HEK293 cells co-transfected with PPAR LBD-GAL4 and GAL4 (UAS) luciferase reporter
[2] = Table 2, compounds of interest, HEK293 cells, PPAR LBD-GAL4 luciferase reporter

Row | Compound | EC50 (PPAR delta; [1]) [nM] | EC50 (PPAR alpha; [1]) [nM] | EC50 (PPAR gamma; [1]) [nM] | EC50 (PPAR alpha; [2]) [nM] | EC50 (PPAR gamma; [2]) [nM] | EC50 (PPAR delta; [2]) [nM]
1 | Cc1cc(SCc2nsc(-c3ccc(Cl)cc3)n2)ccc1OC(C)(C)C(=O)O [Compound 18, 2-{4-[5-(4-Chloro-phenyl)-[1,2,4]thiadiazol-3-ylmethylsulfanyl]-2-methyl-phenoxy}-2-methyl-propionic acid] | 237 | > 3000 | > 3000 | – | – | –
2 | Cc1cc(SCc2cc(-c3ccc(C(F)(F)F)cc3)on2)ccc1OCC(=O)O [Compound g, {2-Methyl-4-[5-(4-trifluoromethyl-phenyl)-isoxazol-3-ylmethylsulfanyl]-phenoxy}-acetic acid] | – | – | – | 2210 | > 3000 | –
3 | Cc1cc([S+]([O-])Cc2nc(-c3ccc(Cl)c(Cl)c3)ns2)ccc1OC(C)(C)C(=O)O (stereo not shown) [Compound a, 2-{4-[3-(3,4-Dichloro-phenyl)-[1,2,4]thiadiazol-5-ylmethanesulfinyl]-2-methyl-phenoxy}-2-methyl-propionic acid] | – | – | – | > 3000 | > 3000 | 412
4 | Cc1cc(SCc2nc(-c3ccc(OC(F)(F)F)cc3)ns2)ccc1OC1(C(=O)O)CCCC1 [Compound 14, 1-{2-Methyl-4-[3-(4-trifluoromethoxy-phenyl)-[1,2,4]thiadiazol-5-ylmethylsulfanyl]-phenoxy}-cyclopentanecarboxylic acid] | > 1000 | 736 | > 3000 | – | – | –
5 | Cc1cc(SCc2nsc(-c3ccc(OC(F)(F)F)cc3)n2)ccc1OC(C)(C)C(=O)O [Compound 17, 2-Methyl-2-{2-methyl-4-[5-(4-trifluoromethoxy-phenyl)-[1,2,4]thiadiazol-3-ylmethylsulfanyl]-phenoxy}-propionic acid] | 58 | 656 | – | – | – | –
6 | Cc1cc(SCc2cc(-c3ccc(C(F)(F)F)cc3)ns2)ccc1OCC(=O)O [Compound c, {2-Methyl-4-[3-(4-trifluoromethyl-phenyl)-isothiazol-5-ylmethylsulfanyl]-phenoxy}-acetic acid] | – | – | – | > 1000 | > 3000 | –
7 | Cc1cc(SCc2nc(-c3ccc(Cl)c(Cl)c3)ns2)ccc1OC1(C(=O)O)CCCC1 [Compound 15, 1-{4-[3-(3,4-Dichloro-phenyl)-[1,2,4]thiadiazol-5-ylmethylsulfanyl]-2-methyl-phenoxy}-cyclopentanecarboxylic acid] | > 1000 | > 3000 | > 3000 | – | – | –
8 | Cc1cc(SCc2cc(-c3ccc(C(F)(F)F)cc3)sn2)ccc1OCC(=O)O [Compound b, {2-Methyl-4-[5-(4-trifluoromethyl-phenyl)-isothiazol-3-ylmethylsulfanyl]-phenoxy}-acetic acid] | – | – | – | > 3000 | > 3000 | –
9 | {2-Methyl-4-[5-(4-trifluoromethyl-phenyl)-pyridin-3-ylmethylsulfanyl]-phenoxy}-acetic acid [Compound e] | – | – | – | > 3000 | – | –
10 | Cc1cc(SCc2cc(-c3ccc(C(F)(F)F)cc3)no2)ccc1OCC(=O)O [Compound f, {2-Methyl-4-[3-(4-trifluoromethyl-phenyl)-isoxazol-5-ylmethylsulfanyl]-phenoxy}-acetic acid] | – | – | – | > 3000 | > 3000 | –

Further compounds by falling EC50 (PPAR alpha; [1]), results first:

Row | EC50 (PPAR delta; [1]) [nM] | EC50 (PPAR alpha; [1]) [nM] | EC50 (PPAR gamma; [1]) [nM] | EC50 (PPAR alpha; [2]) [nM] | EC50 (PPAR gamma; [2]) [nM] | EC50 (PPAR delta; [2]) [nM] | Compound
11 | 114 | 504 | > 3000 | – | – | – | Cc1cc(OCc2nc(-c3ccc(Cl)c(Cl)c3)ns2)ccc1OC(C)(C)C(=O)O [Compound 26, 2-{4-[3-(3,4-Dichloro-phenyl)-[1,2,4]thiadiazol-5-ylmethoxy]-2-methyl-phenoxy}-2-methyl-propionic acid]
12 | 102 | 476 | > 3000 | – | – | – | Cc1cc(SCc2nc(-c3ccc(Cl)cc3Cl)ns2)ccc1OC(C)(C)C(=O)O [Compound 10, 2-{4-[3-(2,4-Dichloro-phenyl)-[1,2,4]thiadiazol-5-ylmethylsulfanyl]-2-methyl-phenoxy}-2-methyl-propionic acid]
13 | 10 | 468 | – | – | – | – | Cc1cc(SCc2nc(-c3ccc(C(F)(F)F)cc3)ns2)ccc1OCC(=O)O [Compound 1, {2-Methyl-4-[3-(4-trifluoromethyl-phenyl)-[1,2,4]thiadiazol-5-ylmethylsulfanyl]-phenoxy}-acetic acid]
14 | 148 | 297 | > 3000 | – | – | – | Cc1ccc(-c2nsc(COc3ccc(OC(C)(C)C(=O)O)c(C)c3)n2)cc1Cl [Compound 20, 2-{4-[3-(3-Chloro-4-methyl-phenyl)-[1,2,4]thiadiazol-5-ylmethoxy]-2-methyl-phenoxy}-2-methyl-propionic acid]
15 | 47 | 222 | > 3000 | – | – | – | Cc1ccc(-c2nsc(CSc3ccc(OC(C)(C)C(=O)O)c(C)c3)n2)cc1 [Compound 5, 2-Methyl-2-[2-methyl-4-(3-p-tolyl-[1,2,4]thiadiazol-5-ylmethylsulfanyl)-phenoxy]-propionic acid]
16 | 20 | 155 | – | – | – | – | CC(C)(Oc1ccc(SCc2nc(-c3ccc(C(F)(F)F)cc3)ns2)cc1)C(=O)O [Compound 2, 2-Methyl-2-{4-[3-(4-trifluoromethyl-phenyl)-[1,2,4]thiadiazol-5-ylmethylsulfanyl]-phenoxy}-propionic acid]
17 | 93 | 115 | – | – | – | – | Cc1ccc(-c2nsc(CSc3ccc(OC(C)(C)C(=O)O)c(C)c3)n2)cc1C [Compound 11, 2-{4-[3-(3,4-Dimethyl-phenyl)-[1,2,4]thiadiazol-5-ylmethylsultanyl]-2-methyl-phenoxy}-2-methyl-propionic acid]
18 | – | 94 | > 3000 | – | – | – | Cc1cc(OCc2nc(-c3ccc(C(F)(F)F)cc3)ns2)ccc1OC(C)(C)C(=O)O [Compound 23, 2-Methyl-2-{2-methyl-4-[3-(4-trifluoromethyl-phenyl)-[1,2,4]thiadiazol-5-ylmethoxy]-phenoxy}-propionic acid]
19 | 7.5 | 87 | – | – | – | – | Cc1cc(SCc2nc(-c3ccc(C(F)(F)F)cc3)ns2)ccc1OC(C)(C)C(=O)O [Compound 3, 2-Methyl-2-{2-methyl-4-[3-(4-trifluoromethyl-phenyl)-[1,2,4]thiadiazol-5-ylmethylsulfanyl]-phenoxy}-propionic acid]
20 | – | 37.3 | 465 | – | – | – | Cc1cc(SCCc2nc(-c3ccc(C(F)(F)F)cc3)ns2)ccc1OC(C)(C)C(=O)O [Compound 28, 2-Methyl-2-(2-methyl-4-{2-[3-(4-trifluoromethyl-phenyl)-[1,2,4]thiadiazol-5-yl]-ethylsulfanyl}-phenoxy)-propionic acid]
21 | 5.2 | 34 | 640 | – | – | – | Cc1cc(SCc2nc(-c3ccc(C(F)(F)F)c(F)c3)ns2)ccc1OC(C)(C)C(=O)O [Compound 13, 2-{4-[3-(3-Fluoro-4-trifluoromethyl-phenyl)-[1,2,4]thiadiazol-5-ylmethylsulfanyl]-2-methyl-phenoxy}-2-methyl-propionic acid]
22 | – | 33 | 11600 | – | – | – | Cc1cc(SCc2nc(-c3ccc(OC(F)(F)F)cc3)ns2)ccc1OC(C)(C)C(=O)O [Compound 4, 2-Methyl-2-{2-methyl-4-[3-(4-trifluoromethoxy-phenyl)-[1,2,4]thiadiazol-5-ylmethylsulfanyl]-phenoxy}-propionic acid]
